11 molecules from ChEMBL document CHEMBL4340560, “Design and synthesis of novel 1-phenyl-3-(5-(pyrimidin-4-ylthio)-1,3,4-thiadiazol- 2-yl)urea derivatives with potent anti-CML activity throughout PI3K/AKT signaling pathway” (Bioorg Med Chem Lett, 2019) can be followed below.

In assay [1] the target is Proline-rich AKT1 substrate 1 (Homo sapiens) (UniProt Q96B36). The assay is described as follows: Inhibition of PRAS40 phosphorylation at T246 residue in human K562 cells up to 10 uM incubated for 48 hrs by human phospho-kinase array. In kind it is cell-based.
Assay [2] concerns the target Protein-tyrosine kinase 2-beta (Homo sapiens) (UniProt Q14289). The assay is described as follows: Inhibition of PYK2 phosphorylation in human K562 cells up to 10 uM incubated for 48 hrs by human phospho-kinase array. In kind it is cell-based.
The subject of assay [3] is K562. The assay is described as follows: Inhibition of PI3K/Akt signaling in human K562 cells assessed as reduction in mTOR phosphorylation at S2448 residues up to 10 uM incubated for 48 hrs by human phospho-kinase array. Format: cell-based.
Assay [4] relates to K562. The assay is described as follows: Inhibition of MAPK signalling in human K562 cells assessed as effect on HSP27 phosphorylation up to 10 uM incubated for 48 hrs by human phospho-kinase array. Format: cell-based.
Assay [5] concerns the target Serine/threonine-protein kinase WNK1 (Homo sapiens) (UniProt Q9H4A3). The assay is described as follows: Inhibition of WNK1 phosphorylation at T60 residue in human K562 cells up to 10 uM incubated for 48 hrs by human phospho-kinase array. Format: cell-based.
For assay [6], the system named is K562. The assay is described as follows: Inhibition of RAF/MEK/ERK signalling n human K562 cells assessed as reduction in RSK1/2/3 phosphorylation at S380/S386/S377 residues up to 10 uM incubated for 48 hrs by human phospho-kinase array. Format: cell-based.
Assay [7] deals with Cellular tumor antigen p53 (Homo sapiens) (UniProt P04637). The assay is described as follows: Induction of p53 phosphorylation at S392, S46, S15 residues in human K562 cells up to 10 uM incubated for 48 hrs by human phospho-kinase array. Format: cell-based.
Sequence of Cellular tumor antigen p53 (Homo sapiens) (P04637 whole entry, looked up): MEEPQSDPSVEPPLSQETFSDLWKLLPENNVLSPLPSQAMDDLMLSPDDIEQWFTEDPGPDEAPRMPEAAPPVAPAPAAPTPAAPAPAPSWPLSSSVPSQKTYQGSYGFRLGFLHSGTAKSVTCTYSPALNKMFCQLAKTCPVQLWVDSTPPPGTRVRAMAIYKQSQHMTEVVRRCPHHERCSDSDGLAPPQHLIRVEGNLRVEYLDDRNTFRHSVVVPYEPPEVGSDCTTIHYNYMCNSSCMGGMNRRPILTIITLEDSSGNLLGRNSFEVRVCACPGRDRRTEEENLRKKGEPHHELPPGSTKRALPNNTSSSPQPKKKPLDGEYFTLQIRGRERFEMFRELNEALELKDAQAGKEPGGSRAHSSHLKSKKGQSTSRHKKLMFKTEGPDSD
Assay [8] deals with K562. The assay is described as follows: Inhibition of RAF/MEK/ERK signalling n human K562 cells assessed as reduction in ERK1/2 phosphorylation at T202/Y204, T185/Y187 residues up to 10 uM incubated for 48 hrs by human phospho-kinase array. Format: cell-based.
Assay [9] addresses Serine/threonine-protein kinase AKT (Homo sapiens) (UniProt P31751+Q9Y243+P31749). The assay is described as follows: Inhibition of AKT1/2/3 phosphorylation (S473/T308 residues) in human K562 cells up to 10 uM incubated for 48 hrs by human phospho-kinase array. In kind it is cell-based.
Assay [10] relates to K562. The assay is described as follows: Inhibition of MAPK signalling in human K562 cells assessed as effect on JNK phosphorylation up to 10 uM incubated for 48 hrs by human phospho-kinase array. In kind it is cell-based.
In assay [11] the test system is K562. The assay is described as follows: Inhibition of PI3K/Akt signaling in human K562 cells assessed as reduction in p70S6K phosphorylation at T421/S424 residues up to 10 uM incubated for 48 hrs by human phospho-kinase array. In kind it is cell-based.
Assay [12] relates to K562. The assay is described as follows: Induction of apoptosis in human K562 cells assessed as increase in apoptotic cells at 10 uM incubated for 24 to 48 hrs by Caspase-3/7 reagent-based fluorescence assay. Format: functional, cell-based.
The test system of assay [13] is K562. The assay is described as follows: Antiproliferative activity against human K562 cells assessed as inhibition of cell viability incubated for 72 hrs by real time live-cell imaging technique. In kind it is functional, cell-based. To be noted: K562, 72 h.
Assay [14] concerns the target Proto-oncogene tyrosine-protein kinase Src (Homo sapiens) (UniProt P12931). The assay is described as follows: Inhibition of SRC phosphorylation in human K562 cells up to 10 uM incubated for 48 hrs by human phospho-kinase array. In kind it is cell-based.
For assay [15], the system named is K562. The assay is described as follows: Inhibition of MAPK signalling in human K562 cells assessed as effect on p38 phosphorylation up to 10 uM incubated for 48 hrs by human phospho-kinase array. In kind it is cell-based.
Assay [16] relates to K562. The assay is described as follows: Inhibition of PI3K/Akt signaling in human K562 cells assessed as reduction in GSK3alpha/beta phosphorylation at S21/S9 residues up to 10 uM incubated for 48 hrs by human phospho-kinase array. In kind it is cell-based.
Assay [17] addresses Tyrosine-protein kinase Lck (Homo sapiens) (UniProt P06239). The assay is described as follows: Inhibition of LCK phosphorylation in human K562 cells up to 10 uM incubated for 48 hrs by human phospho-kinase array. Format: cell-based.
For assay [18], the target named is Cyclin-dependent kinase inhibitor 1B (Homo sapiens) (UniProt P46527). The assay is described as follows: Induction of p27 phosphorylation at T198 residues in human K562 cells up to 10 uM incubated for 48 hrs by human phospho-kinase array. Format: cell-based.
Sequence of Cyclin-dependent kinase inhibitor 1B (Homo sapiens) (P46527 whole entry): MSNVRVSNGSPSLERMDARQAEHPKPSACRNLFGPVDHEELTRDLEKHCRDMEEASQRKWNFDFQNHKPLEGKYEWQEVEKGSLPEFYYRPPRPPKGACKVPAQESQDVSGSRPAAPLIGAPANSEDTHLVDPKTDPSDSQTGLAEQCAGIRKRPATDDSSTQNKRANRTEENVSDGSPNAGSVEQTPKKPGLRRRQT
In assay [19] the test system is K562. The assay is described as follows: Inhibition of STAT signalling in human K562 cells up to 10 uM incubated for 48 hrs by human phospho-kinase array. Format: cell-based.
Assay [20] concerns K562. The assay is described as follows: Induction of apoptosis in human K562 cells assessed as increase in apoptotic cells at 10 uM incubated for 48 hrs by Caspase-3/7 reagent-based fluorescence assay. In kind it is functional, cell-based.

Activity calls are given as the source filed them. The calls are words filed in the database; no cut-off is given here.

Sequence of Protein-tyrosine kinase 2-beta (Homo sapiens) (Q14289 whole entry, looked up): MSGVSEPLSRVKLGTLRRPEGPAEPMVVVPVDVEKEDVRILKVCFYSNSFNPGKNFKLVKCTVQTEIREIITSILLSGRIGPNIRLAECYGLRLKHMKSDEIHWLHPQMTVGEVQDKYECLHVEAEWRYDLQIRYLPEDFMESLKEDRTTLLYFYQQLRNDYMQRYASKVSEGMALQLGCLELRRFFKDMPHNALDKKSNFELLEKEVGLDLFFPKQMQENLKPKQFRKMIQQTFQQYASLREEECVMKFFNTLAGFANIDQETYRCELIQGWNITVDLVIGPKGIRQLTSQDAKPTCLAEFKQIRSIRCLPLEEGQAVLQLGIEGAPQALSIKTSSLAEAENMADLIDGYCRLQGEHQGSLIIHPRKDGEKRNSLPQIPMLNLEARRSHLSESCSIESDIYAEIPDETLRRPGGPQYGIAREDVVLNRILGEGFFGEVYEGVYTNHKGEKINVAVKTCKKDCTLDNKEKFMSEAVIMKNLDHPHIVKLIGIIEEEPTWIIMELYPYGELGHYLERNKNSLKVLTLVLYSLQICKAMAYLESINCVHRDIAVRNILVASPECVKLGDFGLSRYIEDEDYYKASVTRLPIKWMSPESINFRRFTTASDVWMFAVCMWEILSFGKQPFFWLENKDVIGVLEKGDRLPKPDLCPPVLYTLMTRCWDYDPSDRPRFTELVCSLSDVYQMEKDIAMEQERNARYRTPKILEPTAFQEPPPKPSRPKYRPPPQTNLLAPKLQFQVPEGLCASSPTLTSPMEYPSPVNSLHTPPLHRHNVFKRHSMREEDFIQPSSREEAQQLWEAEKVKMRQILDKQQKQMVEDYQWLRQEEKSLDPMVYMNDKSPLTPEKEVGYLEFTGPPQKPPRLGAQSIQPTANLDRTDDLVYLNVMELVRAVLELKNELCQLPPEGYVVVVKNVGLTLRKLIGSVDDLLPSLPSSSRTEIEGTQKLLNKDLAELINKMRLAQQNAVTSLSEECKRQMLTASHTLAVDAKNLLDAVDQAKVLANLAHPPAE
Sequence of Serine/threonine-protein kinase WNK1 (Homo sapiens) (Q9H4A3 whole entry, looked up): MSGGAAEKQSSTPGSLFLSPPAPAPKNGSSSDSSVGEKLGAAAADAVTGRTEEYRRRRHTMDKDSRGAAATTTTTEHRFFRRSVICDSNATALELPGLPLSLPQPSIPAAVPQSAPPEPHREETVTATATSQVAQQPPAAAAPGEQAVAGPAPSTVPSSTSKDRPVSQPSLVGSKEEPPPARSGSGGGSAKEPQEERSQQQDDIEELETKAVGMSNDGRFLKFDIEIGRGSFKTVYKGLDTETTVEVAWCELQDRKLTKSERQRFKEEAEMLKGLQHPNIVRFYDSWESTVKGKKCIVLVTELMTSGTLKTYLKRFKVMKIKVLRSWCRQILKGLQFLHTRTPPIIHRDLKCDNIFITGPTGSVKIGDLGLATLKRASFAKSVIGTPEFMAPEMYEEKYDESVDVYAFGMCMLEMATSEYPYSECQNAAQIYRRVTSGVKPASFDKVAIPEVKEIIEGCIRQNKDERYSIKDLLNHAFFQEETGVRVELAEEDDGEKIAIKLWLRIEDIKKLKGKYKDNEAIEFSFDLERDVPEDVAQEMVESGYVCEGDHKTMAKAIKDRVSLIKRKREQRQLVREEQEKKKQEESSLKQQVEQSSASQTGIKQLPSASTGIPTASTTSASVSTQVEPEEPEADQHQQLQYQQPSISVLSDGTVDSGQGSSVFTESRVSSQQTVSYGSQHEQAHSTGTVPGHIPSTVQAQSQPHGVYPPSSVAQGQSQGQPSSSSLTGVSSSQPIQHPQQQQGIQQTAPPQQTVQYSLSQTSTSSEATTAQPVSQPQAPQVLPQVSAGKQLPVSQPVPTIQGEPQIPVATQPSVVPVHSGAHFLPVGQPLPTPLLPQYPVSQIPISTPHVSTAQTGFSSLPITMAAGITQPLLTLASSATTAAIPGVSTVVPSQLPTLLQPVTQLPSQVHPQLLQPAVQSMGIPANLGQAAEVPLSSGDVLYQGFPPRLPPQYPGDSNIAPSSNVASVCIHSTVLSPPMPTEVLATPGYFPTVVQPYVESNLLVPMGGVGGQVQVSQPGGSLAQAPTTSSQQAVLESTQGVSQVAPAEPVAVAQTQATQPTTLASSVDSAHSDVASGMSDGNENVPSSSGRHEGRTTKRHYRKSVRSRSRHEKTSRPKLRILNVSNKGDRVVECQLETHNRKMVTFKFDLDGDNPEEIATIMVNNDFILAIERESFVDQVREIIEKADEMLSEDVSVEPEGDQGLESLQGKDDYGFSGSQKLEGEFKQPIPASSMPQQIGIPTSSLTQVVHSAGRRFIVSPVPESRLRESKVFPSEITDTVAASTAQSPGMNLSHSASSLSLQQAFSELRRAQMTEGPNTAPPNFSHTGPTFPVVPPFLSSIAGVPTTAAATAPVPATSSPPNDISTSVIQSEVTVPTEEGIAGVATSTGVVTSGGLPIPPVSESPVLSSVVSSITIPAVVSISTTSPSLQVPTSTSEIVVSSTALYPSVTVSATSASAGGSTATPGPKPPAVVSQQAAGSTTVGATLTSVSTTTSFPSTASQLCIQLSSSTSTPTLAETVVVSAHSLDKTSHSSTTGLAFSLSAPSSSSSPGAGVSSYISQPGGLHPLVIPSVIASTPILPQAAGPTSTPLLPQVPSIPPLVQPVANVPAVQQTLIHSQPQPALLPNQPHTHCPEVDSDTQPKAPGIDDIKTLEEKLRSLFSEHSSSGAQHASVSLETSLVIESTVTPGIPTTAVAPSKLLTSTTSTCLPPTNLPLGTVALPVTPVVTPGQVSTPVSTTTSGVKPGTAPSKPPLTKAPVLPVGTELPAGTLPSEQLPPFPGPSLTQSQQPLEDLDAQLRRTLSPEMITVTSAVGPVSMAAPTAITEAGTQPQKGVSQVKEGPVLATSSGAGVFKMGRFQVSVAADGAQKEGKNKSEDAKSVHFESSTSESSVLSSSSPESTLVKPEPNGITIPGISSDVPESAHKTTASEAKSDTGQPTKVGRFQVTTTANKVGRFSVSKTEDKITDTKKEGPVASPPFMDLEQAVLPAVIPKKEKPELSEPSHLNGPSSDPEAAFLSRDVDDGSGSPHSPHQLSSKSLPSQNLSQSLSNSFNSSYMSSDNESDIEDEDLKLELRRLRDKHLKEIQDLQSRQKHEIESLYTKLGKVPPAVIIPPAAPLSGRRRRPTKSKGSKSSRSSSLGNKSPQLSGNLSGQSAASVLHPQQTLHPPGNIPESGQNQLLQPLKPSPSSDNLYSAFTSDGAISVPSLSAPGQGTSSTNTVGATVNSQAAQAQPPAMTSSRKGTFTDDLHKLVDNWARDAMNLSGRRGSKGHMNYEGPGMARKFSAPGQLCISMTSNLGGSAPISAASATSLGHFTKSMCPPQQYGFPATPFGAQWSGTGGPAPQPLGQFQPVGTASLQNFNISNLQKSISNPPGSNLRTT
Sequence of Proto-oncogene tyrosine-protein kinase Src (Homo sapiens) (P12931 2-536 limits assumed): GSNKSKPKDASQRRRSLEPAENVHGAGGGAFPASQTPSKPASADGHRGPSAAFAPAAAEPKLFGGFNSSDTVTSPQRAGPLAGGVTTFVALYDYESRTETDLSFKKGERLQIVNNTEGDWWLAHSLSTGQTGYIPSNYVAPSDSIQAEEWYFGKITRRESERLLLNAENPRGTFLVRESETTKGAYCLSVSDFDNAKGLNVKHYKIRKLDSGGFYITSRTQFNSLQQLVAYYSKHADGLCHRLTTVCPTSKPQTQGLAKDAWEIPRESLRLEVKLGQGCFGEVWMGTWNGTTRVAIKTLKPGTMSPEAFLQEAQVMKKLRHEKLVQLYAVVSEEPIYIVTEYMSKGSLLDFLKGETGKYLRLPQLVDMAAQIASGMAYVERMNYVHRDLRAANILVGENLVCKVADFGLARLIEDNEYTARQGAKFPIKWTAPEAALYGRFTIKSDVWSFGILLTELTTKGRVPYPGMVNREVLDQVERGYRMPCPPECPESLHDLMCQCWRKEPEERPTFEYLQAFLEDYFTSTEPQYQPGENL

Turning to `O=C(Nc1ccc(C(F)(F)F)cc1)Nc1nnc(Sc2cc(NCCCN3CCOCC3)ncn2)s1`, the inhibition entry in assay [1], in assay [2], in assay [3], in [4], in assay [5] and in assay [6] was “Active” in each case. For the same molecule, the inhibition result in assay [8], in assay [9], in [10], in [11], in [14] and in [15] was “Active” each time. Also, the inhibition result in assay [16], in assay [17] and in [19] was “Active” each time. In addition, the outcome in assay [7], in assay [12] and in [18] was Active. Besides, the IC50 in [13] came to 0.038 µM.

For `Cc1ccc(NC(=O)Nc2nnc(Sc3cc(OCCCN4CCOCC4)ncn3)s2)cc1`, the IC50 in assay [13] came out at 0.078 µM.

As to `O=C(Nc1ccc(Cl)c(C(F)(F)F)c1)Nc1nnc(Sc2cc(OCCCN3CCOCC3)ncn2)s1`, the IC50 in [13] was 0.15 µM.

For `CCN(CC)CCCNc1cc(Sc2nnc(NC(=O)Nc3ccc(C)cc3)s2)ncn1`, the IC50 in assay [13] is 0.014 µM.

Consider `COc1cccc(NC(=O)Nc2nnc(Sc3cc(NCCCN4CCOCC4)ncn3)s2)c1`, for which, in assay [13], the IC50 was determined as 0.69 µM.

As for `Cc1ccc(NC(=O)Nc2nnc(Sc3cc(NCCCN4CCOCC4)ncn3)s2)cc1Cl`, in [13], the IC50 turned out to be 0.035 µM.

For the molecule `Cc1ccc(NC(=O)c2ccc(CN3CCN(C)CC3)cc2)cc1Nc1nccc(-c2cccnc2)n1` [IMATINIB], the IC50 in assay [13] was found to be 0.14 µM. The result in assay [20] was Active.

In the case of `O=C(Nc1ccc(Cl)cc1)Nc1nnc(Sc2cc(NCCCN3CCOCC3)ncn2)s1`, in assay [13], the IC50 amounted to 0.11 µM.

For `CCN(CC)CCCNc1cc(Sc2nnc(NC(=O)Nc3ccc(Cl)c(C(F)(F)F)c3)s2)ncn1`, the IC50 in [13] was 0.28 µM.

Consider `Cc1ccc(NC(=O)Nc2nnc(Sc3cc(NCCCN4CCOCC4)ncn3)s2)cc1`, for which the IC50 in assay [13] stood at 0.056 µM.

Consider `O=C(Nc1ccc(Cl)c(C(F)(F)F)c1)Nc1nnc(Sc2cc(NCCCN3CCOCC3)ncn2)s1`, for which, in assay [13], the half-inhibitory concentration (IC50) came out at 0.12 µM.

Usually IC50 stands for the point on the concentration scale where inhibition reaches its midpoint.
